This note sets out measurements from ChEMBL document CHEMBL3039007, “Structure-based identification of OATP1B1/3 inhibitors” (Mol Pharmacol, 2013).

The target in data set [1] is T1, Solute carrier organic anion transporter family member 1B1 (Homo sapiens, UniProt Q9Y6L6).
T1 sequence (Q9Y6L6 whole entry): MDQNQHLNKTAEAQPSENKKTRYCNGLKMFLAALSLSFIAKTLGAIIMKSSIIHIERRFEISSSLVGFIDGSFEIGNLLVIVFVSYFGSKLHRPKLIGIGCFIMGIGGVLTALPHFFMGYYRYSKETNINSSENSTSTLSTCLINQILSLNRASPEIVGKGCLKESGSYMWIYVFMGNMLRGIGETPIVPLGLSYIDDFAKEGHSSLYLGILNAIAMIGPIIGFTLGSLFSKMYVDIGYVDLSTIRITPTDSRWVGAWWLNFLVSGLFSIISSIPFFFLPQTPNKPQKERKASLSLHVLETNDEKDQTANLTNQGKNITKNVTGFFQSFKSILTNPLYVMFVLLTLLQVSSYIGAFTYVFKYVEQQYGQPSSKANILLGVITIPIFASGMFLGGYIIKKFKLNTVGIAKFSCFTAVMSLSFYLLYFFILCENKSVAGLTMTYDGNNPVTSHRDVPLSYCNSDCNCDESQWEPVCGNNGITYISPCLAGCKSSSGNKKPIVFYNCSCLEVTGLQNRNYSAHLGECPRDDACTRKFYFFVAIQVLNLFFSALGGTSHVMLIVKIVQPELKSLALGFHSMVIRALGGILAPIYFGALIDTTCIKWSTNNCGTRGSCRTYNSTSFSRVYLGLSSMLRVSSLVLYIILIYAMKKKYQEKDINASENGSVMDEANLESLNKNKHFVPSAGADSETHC
To be noted: chinese hamster, cho, 10 µM.

In data set [2] the target is T2, Solute carrier organic anion transporter family member 1B3 (Homo sapiens, UniProt Q9NPD5).
T2 sequence (Q9NPD5 whole entry): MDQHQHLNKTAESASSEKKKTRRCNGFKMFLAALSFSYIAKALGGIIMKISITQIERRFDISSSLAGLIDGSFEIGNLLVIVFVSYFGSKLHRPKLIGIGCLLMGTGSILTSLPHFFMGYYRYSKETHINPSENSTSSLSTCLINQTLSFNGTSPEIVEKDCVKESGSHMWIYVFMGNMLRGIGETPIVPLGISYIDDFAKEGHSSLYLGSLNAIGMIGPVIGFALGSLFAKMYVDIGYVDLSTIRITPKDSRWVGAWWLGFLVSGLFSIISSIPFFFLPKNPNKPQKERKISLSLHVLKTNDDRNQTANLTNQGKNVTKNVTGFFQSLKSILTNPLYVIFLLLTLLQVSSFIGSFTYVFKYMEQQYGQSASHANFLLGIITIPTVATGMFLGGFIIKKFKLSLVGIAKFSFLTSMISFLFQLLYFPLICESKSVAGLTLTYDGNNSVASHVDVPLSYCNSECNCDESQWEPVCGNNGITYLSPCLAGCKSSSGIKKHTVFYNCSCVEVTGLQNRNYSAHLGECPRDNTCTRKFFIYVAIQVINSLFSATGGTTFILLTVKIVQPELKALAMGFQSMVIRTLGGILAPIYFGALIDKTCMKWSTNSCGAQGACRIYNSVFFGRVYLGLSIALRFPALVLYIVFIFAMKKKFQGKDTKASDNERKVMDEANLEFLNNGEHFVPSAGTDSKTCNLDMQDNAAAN
The settings on record: chinese hamster, cho, 10 µM.

Regarding `Cc1scc2c1N(C(=O)CN1CCN(C)CC1)c1ccccc1NC2=O.Cl` [TELENZEPINE HYDROCHLORIDE], the residual activity in data set [1] was determined as 99.27%; in data set [2] it was 93.24%.

Consider `COP(=S)(OC)Oc1ccc(Sc2ccc(OP(=S)(OC)OC)cc2)cc1` [TEMEFOS], for which the residual activity in data set [1] was found to be 144.3%; in data set [2], 89.27%.

For the molecule `COc1cc([C@@H]2c3cc4c(cc3[C@@H](O[C@@H]3O[C@@H]5CO[C@@H](c6cccs6)O[C@H]5[C@H](O)[C@H]3O)[C@H]3COC(=O)[C@H]23)OCO4)cc(OC)c1O` [TENIPOSIDE], the results for the residual activity in data set [1] and in data set [2] were 25.44% and 32.58%, respectively.

As for `CN1C(C(=O)Nc2ccccn2)=C(O)c2sccc2S1(=O)=O` [TENOXICAM], the residual activity in data set [1] is 78.82%; in data set [2], 78.1%.

Consider `CCC(=O)O[C@H]1CC[C@H]2[C@@H]3CCC4=CC(=O)CC[C@]4(C)[C@H]3CC[C@]12C` [TESTOSTERONE PROPIONATE], for which the residual activity is 121% in data set [1] and 133.5% in data set [2].

In the case of `CCCCNc1ccc(C(=O)OCCN(C)C)cc1.Cl` [TETRACAINE HYDROCHLORIDE], the residual activity in data set [1] came out at 61.91%; in data set [2] it was 88.3%.

For the molecule `CN(C)[C@@H]1C(O)=C(C(N)=O)C(=O)[C@@]2(O)C(O)=C3C(=O)c4c(O)cccc4[C@@](C)(O)[C@H]3C[C@@H]12.Cl` [TETRACYCLINE HYDROCHLORIDE], the residual activity in data set [1] worked out at 118.1%; in data set [2], 97.72%.

In the case of `O=C(O)Cc1cc(I)c(Oc2cc(I)c(O)c(I)c2)c(I)c1` [TETRAC], the residual activity is recorded as 33.41% in data set [1] and 71.42% in data set [2].

On to `C[C@]12CC[C@@H](O)C[C@H]1CC[C@@H]1[C@@H]2C(=O)C[C@@]2(C)[C@H]1CC[C@]2(O)C(=O)CO` [TETRAHYDROCORTISONE], for which the residual activity in data set [1] came to 101.6%; in data set [2], 99.93%.

As for `COc1cc2c(cc1OC)[C@@H]1Cc3ccc(OC)c(OC)c3CN1CC2` [TETRAHYDROPALMATINE], the residual activity came out at 186.7% in data set [1] and 106.9% in data set [2].

With `COc1ccc2c(c1)OC[C@@H](Cc1ccc(OC)c(OC)c1)[C@H]2O` [TETRAHYDROSAPPANONE A TRIMETHYL ETHER], the residual activity is 93.05% in data set [1] and 134.3% in data set [2].

As to `O=C1C(O)=C(O)C(=O)C(O)=C1O` [TETROQUINONE], the residual activity in data set [1] was 121.2%; in data set [2], 83.15%.

Turning to `O=C1CCC(N2C(=O)c3ccccc3C2=O)C(=O)N1` (configuration not stated) [THALIDOMIDE], the residual activity in data set [1] is listed as 82.94%; in data set [2] it was 101%.

Consider `O=c1c(O)cccc2c([C@H]3Oc4cc(O)cc(O)c4C[C@H]3O)cc(O)c(O)c12` [THEAFLAVANIN], for which the values for the residual activity in data set [1] and in data set [2] were 60% and 85.59%, respectively.

`O=C(O[C@@H]1Cc2c(O)cc(O)cc2O[C@@H]1c1cc(O)c(=O)c2c(O)c(O)cc([C@H]3Oc4cc(O)cc(O)c4C[C@H]3O)c2c1)c1cc(O)c(O)c(O)c1` [THEAFLAVIN MONOGALLATES]: the residual activity in data set [1] is 89.76%; in data set [2], 103.8%.

`O=c1c(O)cc([C@H]2Oc3cc(O)cc(O)c3C[C@H]2O)cc2c([C@H]3Oc4cc(O)cc(O)c4C[C@H]3O)cc(O)c(O)c12` [THEAFLAVIN]: the residual activity in data set [1] was found to be 53%; in data set [2], 75.27%.

On to `CCNC(=O)CC[C@H](N)C(=O)O` [THEANINE], for which the residual activity in data set [1] was found to be 120.6%; in data set [2] it was 82.21%.

In the case of `O=C(O[C@@H]1Cc2c(O)cc(O)cc2O[C@@H]1c1cc(O)c(O)c(O)c1-c1c([C@H]2Oc3cc(O)cc(O)c3C[C@H]2OC(=O)c2cc(O)c(O)c(O)c2)cc(O)c(O)c1O)c1cc(O)c(O)c(O)c1` [THEASINENSIN A], the residual activity in data set [1] stood at 61.1%; in data set [2], 94.99%.

In the case of `Cn1c(=O)c2[nH]cnc2n(C)c1=O.O` [THEOPHYLLINE], the residual activity in data set [1] worked out at 90.11%; in data set [2] it was 72.46%.

As for `c1ccc2[nH]c(-c3cscn3)nc2c1` [THIABENDAZOLE], the residual activity is reported as 76.75% in data set [1] and 94.36% in data set [2].

As for `CS(=O)(=O)c1ccc([C@@H](O)[C@@H](CO)NC(=O)C(Cl)Cl)cc1` [THIAMPHENICOL], the residual activity in data set [1] is given as 102.1%; in data set [2] it was 103.5%.

Turning to `C=CCC1(C(C)CCC)C(=O)N=C([S-])NC1=O.[Na+]` (configuration not stated) [THIAMYLAL SODIUM], the residual activity in data set [1] came to 84.73%; in data set [2], 103.8%.

As to `CCCC(C)C1(CC)C(=O)[N-]C(=S)NC1=O.[Na+]` (configuration not stated) [THIOPENTAL SODIUM], the residual activity amounted to 73.02% in data set [1] and 84.51% in data set [2].

Turning to `COC(=O)NC(=S)Nc1ccccc1NC(=S)NC(=O)OC` [THIOPHANATE METHYL], the residual activity in data set [1] was 119%; in data set [2] it was 92.95%.

With `S=P(N1CC1)(N1CC1)N1CC1` [THIOTEPA], the residual activity is reported as 67.53% in data set [1] and 70.43% in data set [2].

Turning to `CN1CCN(CC/C=C2/c3ccccc3Sc3ccc(S(=O)(=O)N(C)C)cc32)CC1` [THIOTHIXENE], the residual activity in data set [1] was 72.97%; in data set [2] it was 115.8%.

In the case of `O=c1cc[nH]c(=S)[nH]1` [THIOURACIL], the residual activity in data set [1] was found to be 95.34%; in data set [2] it was 77.62%.

Regarding `CN(C)C(=S)SSC(=S)N(C)C` [THIRAM], the values for the residual activity in data set [1] and in data set [2] were 104.4% and 99.01%, respectively.

With `COc1ccc(CN(CCN(C)C)c2ncccn2)cc1.Cl` [THONZYLAMINE HYDROCHLORIDE], the residual activity in data set [1] is given as 88.59%; in data set [2], 91.98%.

`CC1=CC(=O)C(C(C)C)=CC1=O` [THYMOQUINONE]: the residual activity in data set [1] is listed as 126.4%; in data set [2], 98.24%.

With `CCN(CC)CCNC(=O)c1cc(S(C)(=O)=O)ccc1OC.Cl` [TIAPRIDE HYDROCHLORIDE], the residual activity in data set [1] was 106.2%; in data set [2], 94.93%.

Consider `C[C@@H]1CC[C@@]2(OC1)O[C@H]1C[C@H]3[C@@H]4CC[C@H]5C[C@@H](O)CC[C@]5(C)[C@H]4CC[C@]3(C)[C@H]1[C@@H]2C` [TIGOGENIN], for which the residual activity in data set [1] was found to be 97%; in data set [2] it was 106.8%.

Turning to `CNC(=N)NCCC[C@H](N)C(=O)O` [TILARGININE], the values for the residual activity in data set [1] and in data set [2] were 94.97% and 97.33%, respectively.

Regarding `CC(C)(C)NC[C@H](O)COc1nsnc1N1CCOCC1.O=C(O)/C=C\C(=O)O` [TIMOLOL MALEATE], the residual activity in data set [1] is recorded as 113.3%; in data set [2], 102.2%.

In the case of `O=c1oc2cc(O)ccc2s1` [TIOXOLONE], the residual activity was 67.3% in data set [1] and 76.34% in data set [2].

With `NC[C@H]1O[C@H](O[C@H]2[C@H](O)[C@@H](O[C@H]3O[C@H](CO)[C@@H](O)[C@H](N)[C@H]3O)[C@H](N)C[C@@H]2N)[C@H](N)C[C@@H]1O` [TOBRAMYCIN], the residual activity is recorded as 197.1% in data set [1] and 105.2% in data set [2].

On to `CCOC(=O)NNc1nncc2ccccc12.Cl` [TODRALAZINE HYDROCHLORIDE], for which the residual activity in data set [1] is on record as 100.5%; in data set [2] it was 106.5%.

In the case of `Cl.c1ccc(CC2=NCCN2)cc1` [TOLAZOLINE HYDROCHLORIDE], the residual activity worked out at 74.2% in data set [1] and 98.49% in data set [2].

Regarding `CCCCNC(=O)NS(=O)(=O)c1ccc(C)cc1` [TOLBUTAMIDE], the residual activity in data set [1] worked out at 125.3%; in data set [2], 99.86%.

In the case of `Cc1c(Cl)cccc1Nc1ccccc1C(=O)O` [TOLFENAMIC ACID], the residual activity in data set [1] was 95.07%; in data set [2], 77.01%.

`Cc1ccc(C(=O)c2ccc(CC(=O)[O-])n2C)cc1.[Na+]` [TOLMETIN SODIUM]: the residual activity worked out at 127.1% in data set [1] and 90.31% in data set [2].
